How the values were obtained:
APP/PS1 transgenic mice [1] = assay: Nissl and H&E staining of hippocampus; assay type: in vivo; settings: vs model group
Source text: (§1) Five months old male APP/PS1 mice, weighing 25–33 g, were purchased from Guangdong Medical Laboratory Animal Center and housed in the Laboratory Animal Center of Sun Yat-sen University (Guangzhou, China) for experimentation. All procedures were approved by the Animal Care and Use Committee of Sun Yat-sen University and complied with legal requirements and national guidelines for the care and maintenance of laboratory animals (Approval No. SYSU-IACUC-2024-002032). The mice were housed in a specific pathogen-free environment with a controlled temperature of 22 ± 1 °C and a 12-h dark/light cycle. The mice were fed with a standard diet, and 30 mice were randomly divided into 6 groups (N = 5). Compound B14 was dissolved in saline and administered at doses of 10, 20, or 40 mg/kg. APP/PS1 male mice were grown until 6 months of age, and then injected intraperitoneally with compound B14 every other day for 60 days. Behavioral experiments were then conducted, and tissue specimens were collected for biochemical analysis.
The mice were sacrificed, with their brains and organs isolated and embedded in paraffin. The brains and organs were then sectioned into 6 μm thin slices. These slices were subjected to H&E or Nissl staining (Servicebio, Guangzhou, China). The stained sections were subsequently imaged and analyzed by using microscopy.

APP/PS1 transgenic mice [2] = assay: Open field test (OFT); assay type: in vivo; settings: B14 10, 20, 40 mg/kg i.p. every other day
Source text: as §1
The spatial memory and learning abilities of the mice were assessed using Morris water maze (MWM), novel object recognition (NOR) and nesting experiments (NBT). The anxiety and depressive behaviors were evaluated through the open field test (OFT) and elevated plus maze (EPM). Detailed experimental procedures are provided in the supplementary information. […]

[3] = test system: BCL-2 gene transcription in brain of APP/PS1 mice; assay: Real-time RT-PCR of mice brain, BCL-2; assay type: in vivo; settings: for F = 2^-∆∆Ct (relative expression fold), BCL-2: relative to WT
Protocol: Five months old male APP/PS1 mice, weighing 25–33 g, were purchased from Guangdong Medical Laboratory Animal Center and housed in the Laboratory Animal Center of Sun Yat-sen University (Guangzhou, China) for experimentation. […] The mice were housed in a specific pathogen-free environment with a controlled temperature of 22 ± 1 °C and a 12-h dark/light cycle. The mice were fed with a standard diet, and 30 mice were randomly divided into 6 groups (N = 5). […] Behavioral experiments were then conducted, and tissue specimens were collected for biochemical analysis.
(§2) ^a -∆∆Ct = -[(Ct value of genes in treated sample - Ct value of genes in control) - (Ct value of β-actin in treated sample - Ct value of β-actin in control)]. ^b F: The relative expression fold.
(§3) Following sample homogenization, chloroform was added, and the solution was allowed to have phase separation into an upper aqueous layer (containing RNA), an interphase, and a lower organic layer (containing DNA and proteins). RNA was precipitated from the aqueous phase using isopropanol, while DNA was precipitated from the aqueous-organic interphase using ethanol.
(§4) Quantitative real-time polymerase chain reaction (qRT-PCR) was performed using the 2× RealStar SYBR Mixture (GenStar, Cat# A301-10, Guangzhou, China) on a LightCycler 480 II real-time PCR system (Roche, USA). Data were analyzed using the 2^−ΔΔCt method. Actin served as the internal control, and relative mRNA levels were normalized accordingly.

[4] = test system: BAX gene transcription in SH-SY5Y cells; assay: Real-time RT-PCR in SH-SY5Y cells, BAX; assay type: cell-based, human
Protocol: (§5) SH-SY5Y cells were treated with or without B14, and total RNA was subsequently isolated and purified. Reverse transcription was performed using a cDNA synthesis kit. The relative transcription levels of the genes were evaluated through quantitative real-time PCR using the SYBR Green-based method, as described in the Supplementary Date. Details regarding the primer sequences and the raw data can be found in Table S7 and Table S8.
as §2
Experiment 1: SH-SY5Y cells were treated with different concentration of B14. The Ct values of BAX, VEGF, CMYC and BCL-2 were obtained.
as §3, with “Total RNA was extracted from cells and mice liver tissue using RNAiso Plus (Takara, 9109, Japan). Following” for “Following”, “ethanol. Complementary DNA (cDNA) was synthesized using the One-Step RT-PCR Kit (Takara, Cat#639503, Japan).” for “ethanol.”
as §4

[5] = test system: BCL-2 gene transcription in SH-SY5Y cells; assay: Real-time RT-PCR in 25 μM Aβ1-42 cell model, BCL-2; assay type: cell-based, human
Protocol: as §5, §2
Experiment 2: The Ct values of BCL-2 and Bax in 25 μM Aβ1-42 model with different concentration of B14.
as §3, with “Total RNA was extracted from cells and mice liver tissue using RNAiso Plus (Takara, 9109, Japan). Following” for “Following”, “ethanol. Complementary DNA (cDNA) was synthesized using the One-Step RT-PCR Kit (Takara, Cat#639503, Japan).” for “ethanol.”
as §4

BCL-2 i-motif = assay: ESI-MS with BCL-2 i-motif; assay type: binding; settings: pH 6.5
Protocol: The oligomer for BCL-2 promoter […] at concentration of 5 μM was annealed in 1 × BPES buffer with or without 20 μM B14 at 95 °C for 5 min, followed by cooling to room temperature. Mass spectrometry signals were collected by using ESI-MS (Thermo, LCQ DECA Plus XP) and analyzed by using pro-mass.

`O=C(CCN1CCOCC1)Nc1ccc2c(c1)c(=O)c1cc(NC(=O)CCN3CCOCC3)ccc1n2-c1ccc2occc2c1` [Compound B14] was tested, and the “hippocampal neuron damage (HE staining)” value (APP/PS1 transgenic mice [1]) was “could reverse the damage of hippocampal neurons in mice”, the “number of Nissl bodies in CA1-CA4 and DG regions” value (APP/PS1 transgenic mice [1]) was “restored” and the “range and duration of activity (OFT)” value (APP/PS1 transgenic mice [2]) was “significant improvement in the range and duration of activity”. For the same compound, the “-∆∆Ct, BCL-2” value ([3]; 10 mg/kg) was 0.39, the “F = 2^-∆∆Ct (relative expression fold), BCL-2” value ([3]; 10 mg/kg) was 0.76 and the “-∆∆Ct, BCL-2” value ([3]; 20 mg/kg) was 0.17. The “F = 2^-∆∆Ct (relative expression fold), BCL-2” value ([3]; 20 mg/kg) was 0.88, the “-∆∆Ct, BCL-2” value ([3]; 40 mg/kg) was -0.01 and the “F = 2^-∆∆Ct (relative expression fold), BCL-2” value ([3]; 40 mg/kg) was 1.00. The “-∆∆Ct, BAX” value ([4]; 6.25 μM B14) was -0.13, the “F = 2^-∆∆Ct (relative expression fold), BAX” value ([4]; 6.25 μM B14) was 1.09 and the “-∆∆Ct, BAX” value ([4]; 12.5 μM B14) was 0. The “F = 2^-∆∆Ct (relative expression fold), BAX” value ([4]; 12.5 μM B14) was 1.00, the “-∆∆Ct, BAX” value ([4]; 25 μM B14) was -0.03 and the “F = 2^-∆∆Ct (relative expression fold), BAX” value ([4]; 25 μM B14) was 1.02. The “-∆∆Ct, BCL-2” value ([5]; 25 μM Aβ1-42 + 6.25 μM B14) was -0.05, the “F = 2^-∆∆Ct (relative expression fold), BCL-2” value ([5]; 25 μM Aβ1-42 + 6.25 μM B14) was 1.04 and the “-∆∆Ct, BCL-2” value ([5]; 25 μM Aβ1-42 + 12.5 μM B14) was -0.48. For the same compound, the “F = 2^-∆∆Ct (relative expression fold), BCL-2” value ([5]; 25 μM Aβ1-42 + 12.5 μM B14) was 1.40, the “-∆∆Ct, BCL-2” value ([5]; 25 μM Aβ1-42 + 25 μM B14) was -0.82 and the “F = 2^-∆∆Ct (relative expression fold), BCL-2” value ([5]; 25 μM Aβ1-42 + 25 μM B14) was 1.76. The “adduct peak in ESI-MS” value (BCL-2 i-motif) was “could bind tightly to BCL-2 i-motif”.

From paper PMC11982498 (Redox Biology, 2025)
